Reference: patent US10450297B2, “Sulfonyl amide derivatives for the treatment of abnormal cell growth” (Pfizer, Inc., priority 2007, dated 2019)
Where a name gives a salt, the structure may show the parent alone.

Biological target: FAK kinase (catalytic construct FAK(410-689)) (Homo sapiens (Human), UniProt Q05397)
Experiment: FAKcd kinase ELISA (inhibition of poly-glu-tyr phosphorylation by FAK(410-689))
Type: biochemical
Settings: 50 μM final ATP

Chain of FAK kinase (catalytic construct FAK(410-689)) (Q05397 410-689): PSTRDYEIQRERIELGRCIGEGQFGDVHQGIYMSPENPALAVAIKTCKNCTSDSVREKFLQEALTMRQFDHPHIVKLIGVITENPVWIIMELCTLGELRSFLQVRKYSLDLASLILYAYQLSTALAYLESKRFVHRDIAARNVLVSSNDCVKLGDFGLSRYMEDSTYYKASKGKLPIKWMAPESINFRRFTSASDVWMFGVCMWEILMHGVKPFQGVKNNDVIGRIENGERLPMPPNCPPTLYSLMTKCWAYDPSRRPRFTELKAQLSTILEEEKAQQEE

Structure (SMILES)	IC50 [nM]
CC(=O)NCC(=O)Nc1cccc(Nc2ncc(C(F)(F)F)c(NCc3ncccc3N(C)S(C)(=O)=O)n2)c1 [Compound 398, N~2~-acetyl-N-[3-({4-[({3-[methyl(methylsulfonyl)amino]pyridin-2-yl}methyl)amino]-5-(trifluoromethyl)pyrimidin-2-yl}amino)phenyl]glycinamide]	2.18
CC(=O)NCC(=O)Nc1cccc(Nc2ncc(C(F)(F)F)c(NCc3cccc(N(C)S(C)(=O)=O)c3)n2)c1 [Compound 399, N-2-acetyl-N-(3-{[4-({3-[methyl(methylsulfonyl)amino]benzyl}amino)-5-(trifluoromethyl)pyrimidin-2-yl]amino}phenyl)glycinamide]	5.57
CNC(=O)c1ccc(Nc2ncc(C(F)(F)F)c(NCc3nccnc3N(C)S(C)(=O)=O)n2)c(C)c1 [Compound 401, N,3-dimethyl-4-({4-[({3-[methyl(methylsulfonyl)amino]pyrazin-2-yl}methyl)amino]-5-(trifluoromethyl)pyrimidin-2-yl}amino)benzamide]	1.17
CNC(=O)c1ccc(Nc2ncc(C(F)(F)F)c(NCc3cccnc3N(C)S(C)(=O)=O)n2)c(C)c1 [Compound 403, N,3-dimethyl-4-({4-[({2-[methyl(methylsulfonyl)amino]pyridin-3-yl}methyl)amino)-5-(trifluoromethyl)pyrimidin-2-yl}amino)benzamide]	1.09
CN(c1ccnc(CNc2nc(Nc3ccc(C(N)=O)cc3)ncc2C(F)(F)F)c1)S(C)(=O)=O [Compound 404, 4-({4-[({4-[methyl(methylsulfonyl)amino]pyridin-2-yl}methyl)amino]-5-(trifluoromethyl)pyrimidin-2-yl}amino)benzamide]	2.07
Cc1cc(C(N)=O)ccc1Nc1ncc(C(F)(F)F)c(NCc2cc(N(C)S(C)(=O)=O)ccn2)n1 [Compound 405, 3-methyl-4-({4-[({4-[methyl(methylsulfonyl)amino]pyridin-2-yl}methyl)amino]-5-(trifluoromethyl)pyrimidin-2-yl}amino)benzamide]	17.3
CN(c1ncccc1CNc1nc(Nc2cccc(C(N)=NO)c2)ncc1C(F)(F)F)S(C)(=O)=O [Compound 408, N′-hydroxy-3-({4-[({2-[methyl(methylsulfonyl)amino]pyridin-3-yl}methyl)amino]-5-(trifluoromethyl)pyrimidin-2-yl}amino)benzenecarboximidamide]	2.29
CN(c1nccnc1CNc1nc(Nc2ccc(C3COC(C)(C)O3)cc2)ncc1C(F)(F)F)S(C)(=O)=O (stereo not shown) [Compound 409, N-[3-({[2-{[4-(2,2-dimethyl-1,3-dioxolan-4-yl)phenyl]amino}-5-(trifluoromethyl)pyrimidin-4-yl]amino}methyl)pyrazin-2-yl]-N-methylmethane-sulfonamide]	4.75
CN(c1ncccc1CNc1nc(Nc2ccc(C3COC(C)(C)O3)cc2)ncc1C(F)(F)F)S(C)(=O)=O (stereo not shown) [Compound 410, N-[3-({[2-{[4-(2,2-dimethyl-1,3-dioxolan-4-yl)phenyl]amino}-5-(trifluoromethyl)pyrimidin-4-yl)amino}methyl)pyridin-2-yl]-N-methylmethane-sulfonamide]	1.19
CN(c1nccnc1CNc1nc(Nc2ccc(C(O)CO)cc2)ncc1C(F)(F)F)S(C)(=O)=O (stereo not shown) [Compound 411, N-[3-({[2-{[4-(1,2-dihydroxyethyl)phenyl]amino}-5-(trifluoromethyl)pyrimidin-4-yl]amino}methyl)pyrazin-2-yl]-N-methylmethane-sulfonamide]	0.941
CN(c1ncccc1CNc1nc(Nc2ccc(CCl)cc2)ncc1C(F)(F)F)S(C)(=O)=O [Example 7, N-(3-((2-(4-(chloromethyl)phenylamino)-5-(trifluoromethyl)pyrimidin-4-ylamino)methyl)pyridin-2-yl)-N-methylmethanesulfonamide]	1.55
CN(c1ncccc1CNc1nc(Nc2cccc(C(=O)NC3CC3)c2)ncc1C(F)(F)F)S(C)(=O)=O [Example 11, N-cyclopropyl-3-({4-[({2-[methyl(methylsulfonyl)amino]pyridin-3-yl}methyl)amino]-5-(trifluoromethyl)pyrimidin-2-yl}amino)benzamide]	1.86

These reach a lower IC50. Values come first.

IC50 [nM]	Structure (SMILES)
0.66	CNC(=O)c1ccc(Nc2ncc(C(F)(F)F)c(NCc3nccnc3N(C)S(C)(=O)=O)n2)cc1C [Compound 400, N,2-dimethyl-4-({4-[({3-[methyl(methylsulfonyl)amino]pyrazin-2-yl)methyl)amino]-5-(trifluoromethyl)pyrimidin-2-yl}amino)benzamide]
< 0.595	CNC(=O)c1ccc(Nc2ncc(C(F)(F)F)c(NCc3cccnc3N(C)S(C)(=O)=O)n2)cc1C [Compound 402, N,2-dimethyl-4-({4-[({2-[methyl(methylsulfonyl)amino]pyridin-3-yl}methyl)amino]-5-(trifluoromethyl)pyrimidin-2-yl}amino)benzamide]
0.784	Cc1cc(Nc2ncc(C(F)(F)F)c(NCc3cc(N(C)S(C)(=O)=O)ccn3)n2)ccc1C(N)=O [Compound 406, 2-methyl-4-({4-[({4-[methyl(methylsulfonyl)amino]pyridin-2-yl}methyl)amino]-5-(trifluoromethyl)pyrimidin-2-yl}amino)benzamide]
< 0.595	CN(c1ncccc1CNc1nc(Nc2ccc(/C(N)=N/O)cc2)ncc1C(F)(F)F)S(C)(=O)=O [Compound 407, N′-hydroxy-4-({4-[({2-[methyl(methylsulfonyl)amino]pyridin-3-yl}methyl)amino]-5-(trifluoromethyl)pyrimidin-2-yl}amino)benzenecarboximidamide]
< 0.595	CN(c1ncccc1CNc1nc(Nc2ccc(C(O)CO)cc2)ncc1C(F)(F)F)S(C)(=O)=O (stereo not shown) [Compound 412, N-[3-({[2-{[4-(1,2-dihydroxyethyl)phenyl]amino}-5-(trifluoromethyl)pyrimidin-4-yl]amino}methyl)pyridin-2-yl]-N-methylmethane-sulfonamide]
< 0.595	CN(c1ncccc1CNc1nc(Nc2ccc(CNCC(C)(C)O)cc2)ncc1C(F)(F)F)S(C)(=O)=O [Compound 413, N-{3-[({2-[(4-{[(2-hydroxy-2-methylpropyl)amino]methyl}phenyl)amino]-5-(trifluoromethyl)pyrimidin-4-yl}amino)methyl]pyridin-2-yl}-N-methylmethanesulfonamide]
< 0.595	CNCc1ccc(Nc2ncc(C(F)(F)F)c(NCc3cccnc3N(C)S(C)(=O)=O)n2)cc1 [Compound 414, N-methyl-N-[3-({[2-({4-[(methylamino)methyl]phenyl}amino)-5-(trifluoromethyl)pyrimidin-4-yl]amino}methyl)pyridin-2-yl]methanesulfonamide]
< 0.595	CNCc1ccc(Nc2ncc(C(F)(F)F)c(NCc3ccccc3N(C)S(C)(=O)=O)n2)cc1 [Compound 415, N-methyl-N-[2-({[2-({4-[(methylamino)methyl]phenyl}amino)-5-(trifluoromethyl)pyrimidin-4-yl]amino}methyl)phenyl]methanesulfonamide]
0.59	CN(c1ncccc1CNc1nc(Nc2ccc(CN)cc2)ncc1C(F)(F)F)S(C)(=O)=O [Example 4, N-(3-((2-(4-(aminomethyl)phenylamino)-5-(trifluoromethyl)pyrimidin-4-ylamino)methyl)pyridin-2-yl)-N-methylmethanesulfonamide]
0.6	CC(=O)NCc1ccc(Nc2ncc(C(F)(F)F)c(NCc3cccnc3N(C)S(C)(=O)=O)n2)cc1 [Example 5, N-(4-(4-((2-(N-methylmethan-5-ylsulfonamido)pyridin-3-yl)methylamino)-5-(trifluoromethyl)pyrimidin-2-ylamino)benzyl)acetamide]
< 0.595	CN(c1ncccc1CNc1nc(Nc2ccc(CO)cc2)ncc1C(F)(F)F)S(C)(=O)=O [Example 6, N-(3-((2-(4-(hydroxymethyl)phenylamino)-5-(trifluoromethyl)pyrimidin-4-ylamino)methyl)pyridin-2-yl)-N-methylmethanesulfonamide]
< 0.595	CN(c1ncccc1CNc1nc(Nc2ccc(CNC(CO)CO)cc2)ncc1C(F)(F)F)S(C)(=O)=O [Example 8, N-(3-((2-(4-((1,3-dihydroxypropan-2-ylamino)methyl)phenylamino)-5-(trifluoromethyl)pyrimidin-4-ylamino)methyl)pyridin-2-yl)-N-methylmethanesulfonamide]
0.6	CN(c1ncccc1CNc1nc(Nc2cccc(C(=O)OC(C)(C)C)c2)ncc1C(F)(F)F)S(C)(=O)=O [Example 9, tert-butyl 3-({4-[({2-[methyl(methylsulfonyl)amino]pyridin-3-yl}methyl)amino]-5-(trifluoromethyl)pyrimidin-2-yl}amino)benzoate]
0.6	CN(c1ncccc1CNc1nc(Nc2cccc(C(=O)O)c2)ncc1C(F)(F)F)S(C)(=O)=O [Example 10, 3-({4-[({2-[methyl(methylsulfonyl)amino]pyridin-3-yl}methyl)amino]-5-(trifluoromethyl)pyrimidin-2-yl}amino)benzoic acid trifluoroacetic acid salt]
< 0.595	CN(c1ncccc1CNc1nc(Nc2ccc(C(N)=O)c(F)c2)ncc1C(F)(F)F)S(C)(=O)=O [Example 13, 2-fluoro-4-({4-[({2-[methyl(methylsulfonyl)amino]pyridin-3-yl}methyl)amino]-5-(trifluoromethyl)pyrimidin-2-yl}amino)benzamide formic acid salt]
< 0.595	CN(c1ncccc1CNc1nc(Nc2ccc(C(N)=O)cc2F)ncc1C(F)(F)F)S(C)(=O)=O [Example 14, 3-fluoro-4-({4-[({2-[methyl(methylsulfonyl)amino]pyridin-3-yl}methyl)amino]-5-(trifluoromethyl)pyrimidin-2-yl}amino)benzamide formic acid salt]
